Data from patent US12479816B2, “20-HETE formation inhibitors” (UNIVERSITY OF PITTSBURGH—OF THE COMMONWEALTH SYSTEM OF …, priority 2019, dated 2025).
Converted amounts (≈) assume the structure as drawn.

system: 20-HETE formation (CYP4) in RLM; assay: Inhibition of 20-HETE formation at 250 or 500 nM in RLM microsomal incubations; type: biochemical, rat; details: 500 nM compound; RLM 300 μg/ml
Protocol: (§1) To screen the inhibitory effects against 20-HETE formation, compounds were screened in HLM, RLM, RKM and rCYP4F2 microsomal incubations. Compounds dissolved in either 100% methanol or 100% DMSO to yield 10 mM stock solution. Microsomal incubations containing HLM, RLM, RKM (300 μg/ml) or rCYP4F2 (25 pmol/mL), AA (100 μM), NADPH (1 mM) treated with test compounds at various concentrations (500 nM or 250 nM) in a 1 ml total volume in incubation buffer (0.12 M potassium phosphate buffer containing 5 mM magnesium chloride). Reaction was started by adding NADPH to the incubates and was carried out at 37° C. in a shaking water bath for 20 min. Reaction was stopped by placing tubes on ice, followed by adding 125 μl 20-HETE-d6 as internal standard to each sample. Microsomal incubations were extracted with 3 ml ethyl ether twice, dried down under nitrogen gas and reconstituted in 125 μl 80:20 methanol:deionized H2O for analysis. 20-HETE formation was quantified using a validated UPLC-MS/MS assay and normalized by vehicle group. Each compound had three replications (n=3). Vehicle group was used as control to calculate percentage of 20-HETE formation rate. HET0016 (250 nM) was used as positive control. Incubates without NADPH group served as the negative control. An Acquity ultra performance LC autosampler (Waters, Milford, MA) was used to isolate 20-HETE on an UPLC BEH C18, 1.7 μm (2.1×100 mm) reversed-phase column (Waters, Milford, MA) protected by a guard column (2.1×5 mm; Waters, Milford, MA) of the same packing material. Column temperature was maintained at 55° C. Mobile phases consisted of 0.005% acetic acid, 5% acetonitrile in deionized water (A) and 0.005% acetic acid in acetonitrile (B). The flow rate for mobile phases is 0.5 ml/min. The initial mixture of mobile phase was 65:35 of A and B. Mobile phase B increased at 0.4 minutes after injection from 35% to 70% in a linear gradient over 4 minutes, and again increased to 95% over 0.5 minutes where it remained for 0.3 minutes. This was followed by a linear return to initial conditions over 0.1 minutes with a 1.5 minute pre-equilibration period prior to the next sample run. Total run time was 6.4 minutes for each injection. Injection volumes were 7.5 μl. Mass spectrometric analysis was carried out using a TSQ Quantum Ultra (Thermo Fisher Scientific, San Jose, CA) triple quadrupole mass spectrometer using heated electrospray ionization (HESI). Mass spectrometer was operated in negative selective reaction monitoring (SRM) mode with unit resolutions at both Q1 and Q3 set at 0.70 Da full width at half maximum. Scan time was set at 0.01 s and collision gas pressure was 1.3 mTorr. Quantitation of 20-HETE by SRM was performed by monitoring the m/z. Analytical data was acquired and analyzed using Xcaliber 3.0 data system (ThermoFinnigan, San Jose, CA).

SMILES | RLM % inh. @ 500 nM
c1cnc(N2CCN(c3cn[nH]c3)CC2)nc1 [Compound 4, 2-(4-(1H-Pyrazol-4-yl)piperazin-1-yl)pyrimidine] | 0.00%
c1ccc(N2CCN(c3cn[nH]c3)CC2)cc1 [Compound 5, 1-Phenyl-4-(1H-pyrazol-4-yl)piperazine] | 0.00%
COc1ccc(N2CCN(c3cn[nH]c3)CC2)cc1 [Compound 6, 1-(4-Methoxyphenyl)-4-(1H-pyrazol-4-yl)piperazine] | 0.00%
c1cnc(C2CCN(c3ccn[nH]3)CC2)nc1 [Compound 9, 2-(1-(1H-Pyrazol-5-yl)piperidin-4-yl)pyrimidine] | 0.00%
c1cnc(C2CCN(c3cn[nH]c3)CC2)nc1 [Compound 10, 2-(1-(1H-Pyrazol-4-yl)piperidin-4-yl)pyrimidine] | 0.00%
COC(=O)c1ccc(C2CCN(c3ccn[nH]3)CC2)cc1 [Compound 11, Methyl 4-(1-(1H-pyrazol-5-yl)piperidin-4-yl)benzoate] | 3.60%
COC(=O)c1ccc(C2CCN(c3cn[nH]c3)CC2)cc1 [Compound 12, Methyl 4-(1-(1H-pyrazol-4-yl)piperidin-4-yl)benzoate] | 18.30%
CC(=O)N(C)c1ccc(C2CCN(c3cn[nH]c3)CC2)cn1 [Compound 13, N-(5-(1-(1H-Pyrazol-4-yl)piperidin-4-yl)pyridin-2-yl)-N-methylacetamide] | 3.00%
COc1cc(C2CCN(c3cn[nH]c3)CC2)ccn1 [Compound 15, 4-(1-(1H-Pyrazol-4-yl)piperidin-4-yl)-2-methoxypyridine] | 16.00%
COc1cc(F)cc(C2CCN(c3ccn[nH]3)CC2)c1 [Compound 73, 4-(3-Fluoro-5-methoxyphenyl)-1-(1H-pyrazol-5-yl)piperidine] | 0.00%

system: 20-HETE formation (CYP4) in RKM; assay: Inhibition of 20-HETE formation at 250 or 500 nM in RKM microsomal incubations; type: biochemical, rat; details: 500 nM compound; RKM 300 μg/ml
Protocol: as §1

SMILES | RKM % inh. @ 500 nM
c1cnc(N2CCN(c3cn[nH]c3)CC2)nc1 [Compound 4, 2-(4-(1H-Pyrazol-4-yl)piperazin-1-yl)pyrimidine] | 0.00%
c1ccc(N2CCN(c3cn[nH]c3)CC2)cc1 [Compound 5, 1-Phenyl-4-(1H-pyrazol-4-yl)piperazine] | 0.00%
COc1ccc(N2CCN(c3cn[nH]c3)CC2)cc1 [Compound 6, 1-(4-Methoxyphenyl)-4-(1H-pyrazol-4-yl)piperazine] | 1.20%
c1cnc(C2CCN(c3ccn[nH]3)CC2)nc1 [Compound 9, 2-(1-(1H-Pyrazol-5-yl)piperidin-4-yl)pyrimidine] | 0.00%
c1cnc(C2CCN(c3cn[nH]c3)CC2)nc1 [Compound 10, 2-(1-(1H-Pyrazol-4-yl)piperidin-4-yl)pyrimidine] | 0.00%
COC(=O)c1ccc(C2CCN(c3ccn[nH]3)CC2)cc1 [Compound 11, Methyl 4-(1-(1H-pyrazol-5-yl)piperidin-4-yl)benzoate] | 1.60%
COC(=O)c1ccc(C2CCN(c3cn[nH]c3)CC2)cc1 [Compound 12, Methyl 4-(1-(1H-pyrazol-4-yl)piperidin-4-yl)benzoate] | 6.40%
CC(=O)N(C)c1ccc(C2CCN(c3cn[nH]c3)CC2)cn1 [Compound 13, N-(5-(1-(1H-Pyrazol-4-yl)piperidin-4-yl)pyridin-2-yl)-N-methylacetamide] | 27.00%
COc1cc(C2CCN(c3cn[nH]c3)CC2)ccn1 [Compound 15, 4-(1-(1H-Pyrazol-4-yl)piperidin-4-yl)-2-methoxypyridine] | 27.00%

molecular target: T1, rCYP4F2 (Homo sapiens, UniProt P78329); assay: Inhibition of 20-HETE formation at 250 or 500 nM in rCYP4F2 incubations; type: biochemical; details: 500 nM compound; rCYP4F2 25 pmol/mL; read-out: rCYP4F2 % inh. @ 500 nM
T1 sequence (P78329 5-520): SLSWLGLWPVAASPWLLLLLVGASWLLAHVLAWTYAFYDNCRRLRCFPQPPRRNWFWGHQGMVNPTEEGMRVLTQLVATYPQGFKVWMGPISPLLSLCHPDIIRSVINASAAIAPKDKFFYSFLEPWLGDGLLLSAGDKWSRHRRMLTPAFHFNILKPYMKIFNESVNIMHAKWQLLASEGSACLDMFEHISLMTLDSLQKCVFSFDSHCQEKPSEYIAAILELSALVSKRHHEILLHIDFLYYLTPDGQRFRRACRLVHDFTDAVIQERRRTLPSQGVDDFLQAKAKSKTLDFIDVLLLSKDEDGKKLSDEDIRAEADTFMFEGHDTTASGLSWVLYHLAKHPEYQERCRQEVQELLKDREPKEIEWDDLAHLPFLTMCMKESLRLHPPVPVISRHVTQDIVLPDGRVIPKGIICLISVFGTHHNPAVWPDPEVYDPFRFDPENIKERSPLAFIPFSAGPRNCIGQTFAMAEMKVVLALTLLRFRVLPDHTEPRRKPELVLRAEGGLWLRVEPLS
Protocol: as §1

SMILES | inhibition at 0.5 µM
c1cnc(N2CCN(c3cn[nH]c3)CC2)nc1 [Compound 4, 2-(4-(1H-Pyrazol-4-yl)piperazin-1-yl)pyrimidine] | 0%
c1ccc(N2CCN(c3cn[nH]c3)CC2)cc1 [Compound 5, 1-Phenyl-4-(1H-pyrazol-4-yl)piperazine] | 2.6%
COc1ccc(N2CCN(c3cn[nH]c3)CC2)cc1 [Compound 6, 1-(4-Methoxyphenyl)-4-(1H-pyrazol-4-yl)piperazine] | 6.1%
c1cnc(C2CCN(c3ccn[nH]3)CC2)nc1 [Compound 9, 2-(1-(1H-Pyrazol-5-yl)piperidin-4-yl)pyrimidine] | 0%
c1cnc(C2CCN(c3cn[nH]c3)CC2)nc1 [Compound 10, 2-(1-(1H-Pyrazol-4-yl)piperidin-4-yl)pyrimidine] | 0%
COC(=O)c1ccc(C2CCN(c3ccn[nH]3)CC2)cc1 [Compound 11, Methyl 4-(1-(1H-pyrazol-5-yl)piperidin-4-yl)benzoate] | 66.5%
COC(=O)c1ccc(C2CCN(c3cn[nH]c3)CC2)cc1 [Compound 12, Methyl 4-(1-(1H-pyrazol-4-yl)piperidin-4-yl)benzoate] | 63.7%
CC(=O)N(C)c1ccc(C2CCN(c3cn[nH]c3)CC2)cn1 [Compound 13, N-(5-(1-(1H-Pyrazol-4-yl)piperidin-4-yl)pyridin-2-yl)-N-methylacetamide] | 1%
COc1cc(C2CCN(c3cn[nH]c3)CC2)ccn1 [Compound 15, 4-(1-(1H-Pyrazol-4-yl)piperidin-4-yl)-2-methoxypyridine] | 54%
COc1cc(F)cc(C2CCN(c3ccn[nH]3)CC2)c1 [Compound 73, 4-(3-Fluoro-5-methoxyphenyl)-1-(1H-pyrazol-5-yl)piperidine] | 54.7%

system: 20-HETE formation (CYP4) in HLM; assay: Inhibition of 20-HETE formation at 250 or 500 nM in HLM microsomal incubations; type: biochemical, human; details: 500 nM compound; HLM 300 μg/ml, AA 100 μM, 20 min
Protocol: as §1

SMILES | HLM % inh. @ 500 nM
c1cnc(N2CCN(c3cn[nH]c3)CC2)nc1 [Compound 4, 2-(4-(1H-Pyrazol-4-yl)piperazin-1-yl)pyrimidine] | 0.00%
c1ccc(N2CCN(c3cn[nH]c3)CC2)cc1 [Compound 5, 1-Phenyl-4-(1H-pyrazol-4-yl)piperazine] | 24.50%
COc1ccc(N2CCN(c3cn[nH]c3)CC2)cc1 [Compound 6, 1-(4-Methoxyphenyl)-4-(1H-pyrazol-4-yl)piperazine] | 31.80%
c1cnc(C2CCN(c3ccn[nH]3)CC2)nc1 [Compound 9, 2-(1-(1H-Pyrazol-5-yl)piperidin-4-yl)pyrimidine] | 0.00%
c1cnc(C2CCN(c3cn[nH]c3)CC2)nc1 [Compound 10, 2-(1-(1H-Pyrazol-4-yl)piperidin-4-yl)pyrimidine] | 0.00%
COC(=O)c1ccc(C2CCN(c3ccn[nH]3)CC2)cc1 [Compound 11, Methyl 4-(1-(1H-pyrazol-5-yl)piperidin-4-yl)benzoate] | 0.00%
COC(=O)c1ccc(C2CCN(c3cn[nH]c3)CC2)cc1 [Compound 12, Methyl 4-(1-(1H-pyrazol-4-yl)piperidin-4-yl)benzoate] | 0.00%
CC(=O)N(C)c1ccc(C2CCN(c3cn[nH]c3)CC2)cn1 [Compound 13, N-(5-(1-(1H-Pyrazol-4-yl)piperidin-4-yl)pyridin-2-yl)-N-methylacetamide] | 29.00%
COc1cc(C2CCN(c3cn[nH]c3)CC2)ccn1 [Compound 15, 4-(1-(1H-Pyrazol-4-yl)piperidin-4-yl)-2-methoxypyridine] | 39.00%
COc1cc(F)cc(C2CCN(c3ccn[nH]3)CC2)c1 [Compound 73, 4-(3-Fluoro-5-methoxyphenyl)-1-(1H-pyrazol-5-yl)piperidine] | 61%

system: not listed separately; assay: Turbidometric solubility determination; type: physicochemical; details: PBS with 1% DMSO, aqueous buffer, kinetic from dmso stock, room temperature, OD620, read-out: Max Solub
Protocol: Solubility determinations shown in Table 3 were obtained turbidometrically and in a manner similar to the one described in Perez et al., J. Biomol. Screen, 2015, 20(2), 254-64. The method requires small volumes of 100× stock concentration drug solution to be prepared in DMSO 0, 0.23, 0.47, 0.94, 1.88, 3.75, 7.5, 15.0, 30.0 and […]. The stock drug concentrations are then diluted 1:100 added into triplicate wells containing PBS in a clear bottom 384 well microtiter to achieve final testing concentrations of 0, 2.3, 4.7, 9.4, 18.8, 37.5, 75, 150, 300, 600 μM in 1% DMSO. The plate is allowed to equilibrate with constant shaking for 2 hours at room temperature. The plate is then placed in a SpectroMax V plate reader to measure absorbance at 620 nm. Increase in absorbance is evident in test wells which precipitation of the compound is evident. The plot of OD620 vs. drug concentration is used to calculate the maximum solubility limit as determined by a statistically significant increase in absorbance above the background levels.

SMILES | solubility at 2 h
COc1cc(F)cc(C2CCN(c3ccn[nH]3)CC2)c1 [Compound 73, 4-(3-Fluoro-5-methoxyphenyl)-1-(1H-pyrazol-5-yl)piperidine] | 164 µM (≈ 45.2 µg/mL)
